In US7879848B2, “Dipeptidyl Peptidase-IV inhibiting compounds, method of preparing the same, and pharmaceutical compositions containing the same as an active agent” (LG Life Sciences, Ltd., priority 2005, dated 2011) one finds IC50 data, which are given here for twelve compounds.

Structures are written as SMILES.

T1 sequence (P27487 whole entry): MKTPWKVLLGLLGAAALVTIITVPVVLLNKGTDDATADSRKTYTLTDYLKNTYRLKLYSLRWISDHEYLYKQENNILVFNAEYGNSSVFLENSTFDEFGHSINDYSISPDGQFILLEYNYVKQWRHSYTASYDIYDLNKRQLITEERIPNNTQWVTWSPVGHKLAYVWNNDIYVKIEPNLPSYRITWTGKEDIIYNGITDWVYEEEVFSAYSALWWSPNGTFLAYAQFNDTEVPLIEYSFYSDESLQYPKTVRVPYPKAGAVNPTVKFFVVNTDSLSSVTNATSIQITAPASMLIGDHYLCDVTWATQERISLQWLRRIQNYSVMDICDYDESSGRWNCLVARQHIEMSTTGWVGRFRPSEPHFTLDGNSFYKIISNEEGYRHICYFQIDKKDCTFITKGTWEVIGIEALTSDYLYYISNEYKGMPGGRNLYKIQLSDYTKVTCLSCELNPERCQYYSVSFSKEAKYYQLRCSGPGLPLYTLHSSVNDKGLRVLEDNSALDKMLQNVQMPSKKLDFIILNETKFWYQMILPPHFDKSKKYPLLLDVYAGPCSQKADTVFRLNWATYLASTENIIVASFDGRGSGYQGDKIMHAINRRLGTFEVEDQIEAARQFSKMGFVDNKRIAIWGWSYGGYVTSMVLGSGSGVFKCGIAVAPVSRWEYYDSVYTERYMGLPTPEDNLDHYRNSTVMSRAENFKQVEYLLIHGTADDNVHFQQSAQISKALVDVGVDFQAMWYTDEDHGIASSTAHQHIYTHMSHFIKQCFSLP

The test has as its target T1, Dipeptidyl Peptidase-IV (DPP-IV) (Homo sapiens, UniProt P27487).
T1 construct: made in house
Put plainly: Measurement of DPP-IV Activity-Inhibiting Ability (fluorescent substrate Ac-Gly-Pro-AFC). It is filed as biochemical. As to conditions: 25° C., 50 mmol HEPES (pH 7.4), DP-IV 7.1 nM, enzyme reaction for 1 hour. An outline of the steps:
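Fluorescence (ex 400 nm, em 505 nm) from cleavage of Ac-Gly-Pro-AFC ([…]) tracked activity at various inhibitor concentrations. Reactions used 7.1 nM recombinant enzyme, expressed in baculovirus and purified on nickel, in 50 mmol HEPES pH 7.4 at 25 °C.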
With `N[C@@H](CC(=O)N1CCc2c(nc(CF)nc2C(F)(F)F)C1)CN1CC(F)(F)CCC1=O` [Ex. 102, 1-{(2S)-2-amino-4-[2-(fluoromethyl)-4-(trifluoromethyl)-5,8-dihydropyrido[3,4-d]pyrimidin-7(6H)-yl]-4-oxobutyl}-5,5-difluoropiperidin-2-one], the midpoint of inhibition, the IC50, lay at 0.029 µM.

`CC1=CC(=O)N(C[C@@H](N)CC(=O)N2CCc3c(nc(C(F)(F)F)nc3C(F)(F)F)C2)C1` [Ex. 103, 1-{(2S)-2-amino-4-[2,4-bis(trifluoromethyl)-5,8-dihydropyrido[3,4-d]pyrimidin-7(6H)-yl]-4-oxobutyl}-4-methyl-1,5-dihydro-2H-pyrrol-2-one]: the half-inhibitory concentration (IC50) (in general, the concentration that inhibits the measured activity by half) was 0.074 µM. `CC1=CC(=O)N(C[C@@H](N)CC(=O)N2CCc3c(nc(-c4ccoc4)nc3C(F)(F)F)C2)C1` [Ex. 104, 1-{(2S)-2-amino-4-[2-(3-furyl)-4-(trifluoromethyl)-5,8-dihydropyrido[3,4-d]pyrimidin-7(6H)-yl]-4-oxobutyl}-4-methyl-1,5-dihydro-2H-pyrrol-2-one] had a concentration for half-maximal inhibition (IC50) of 0.11 µM. Then `CC1CC(=O)N(C[C@@H](N)CC(=O)N2CCc3c(nc(C(F)(F)F)nc3C(F)(F)F)C2)C1` (stereo partly drawn) [Ex. 105, 1-{(2S)-2-amino-4-[2,4-bis(trifluoromethyl)-5,8-dihydropyrido[3,4-d]pyrimidin-7(6H)-yl]-4-oxobutyl}-4-methyloxopyrrolidin-2-one], with 0.059 µM; and `CC1CC(=O)N(C[C@@H](N)CC(=O)N2CCc3c(nc(-c4ccoc4)nc3C(F)(F)F)C2)C1` (stereo partly drawn) [Ex. 106, 1-{(2S)-2-amino-4-[2-(3-furyl)-4-(trifluoromethyl)-5,8-dihydropyrido[3,4-d]pyrimidin-7(6H)-yl]-4-oxobutyl}-4-methylpyrrolidin-2-one], with 0.045 µM.

As for `N[C@@H](CC(=O)N1CCc2c(nc(C(F)(F)F)nc2C(F)(F)F)C1)CN1CC(C(F)(F)F)CCC1=O` (stereo partly drawn) [Ex. 107, 1-{(2S)-2-amino-4-[2,4-bis(trifluoromethyl)-5,8-dihydropyrido[3,4-d]pyrimidin-7(6H)-yl]-4-oxobutyl}-5-(trifluoromethyl)piperidin-2-one], the IC50 was found to be 0.636 µM. Then `N[C@@H](CC(=O)N1CCc2c(nc(C(F)(F)F)nc2C(F)(F)F)C1)CN1CC(C(F)(F)F)CC1=O` (stereo partly drawn) [Ex. 108, 1-{(2S)-2-amino-4-[2,4-bis(trifluoromethyl)-5,8-dihydropyrido[3,4-d]pyrimidin-7(6H)-yl]-4-oxobutyl}-4-(trifluoromethyl)pyrrolidin-2-one], with 0.054 µM; and `N[C@@H](CC(=O)N1CCc2c(nc(-c3ccoc3)nc2C(F)(F)F)C1)CN1CC(C(F)(F)F)CC1=O` (stereo partly drawn) [Ex. 109, 1-{(2S)-2-amino-4-[2-(3-furyl)-4-(trifluoromethyl)-5,8-dihydropyrido[3,4-d]pyrimidin-7(6H)-yl]-4-oxobutyl}-4-(trifluoromethyl)pyrrolidin-2-one], with 0.055 µM.

`CC1CCN(C[C@@H](N)CC(=O)N2CCc3c(nc(C(F)(F)F)nc3C(F)(F)F)C2)C(=O)C1` (stereo partly drawn) [Ex. 110, 1-{(2S)-2-amino-4-[2,4-bis(trifluoromethyl)-5,8-dihydropyrido[3,4-d]pyrimidin-7(6H)-yl]-4-oxobutyl}-4-methyloxopiperidin-2-one] gave a half-inhibitory concentration (IC50) of 0.056 µM. The compound `CC1CCN(C[C@@H](N)CC(=O)N2CCc3c(nc(-c4ccoc4)nc3C(F)(F)F)C2)C(=O)C1` (stereo partly drawn) [Ex. 111, 1-{(2S)-2-amino-4-[2-(3-furyl)-4-(trifluoromethyl)-5,8-dihydropyrido[3,4-d]pyrimidin-7(6H)-yl]-4-oxobutyl}-4-methylpiperidin-2-one] came in with an IC50 of 0.07 µM. Then `C[C@@H]1CCC(=O)N(C[C@@H](N)CC(=O)N2CCc3c(nc(C4CCC4)nc3C(F)(F)F)C2)C1` [Ex. 112, (5R)-1-{(2S)-2-amino-4-[2-cyclobutyl-4-(trifluoromethyl)-5,8-dihydropyrido[3,4-d]pyrimidin-7(6H)-yl]-4-oxobutyl}-5-methylpiperidin-2-one], with 0.01 µM. `N[C@@H](CC(=O)N1CCc2c(nc(C3CCC3)nc2C(F)(F)F)C1)CN1CC(F)(F)CCC1=O` [Ex. 113, 1-{(2S)-2-amino-4-[2-cyclobutyl-4-(trifluoromethyl)-5,8-dihydropyrido[3,4-d]pyrimidin-7(6H)-yl]-4-oxobutyl}-5,5-difluoropiperidin-2-one] had an IC50 of 0.013 µM.
